Like-named read-outs stand apart in the source and are kept apart here. Some results are limits rather than exact numbers.

A short description of data set [1]: Oral pharmacokinetic study in mice, plasma LC-MS/MS. Conditions: 10 mpk, female Balb C mice. In kind it is in vivo. As to the method:
Female Balb C mice 4 per group after overnight fasting were dosed orally (via gavage) with compound 1 in 5% NMP in normal saline (10 ml/kg). Blood was collected by serial bleeding at 0.16 hr, 0.5 hr, 1 hr, 2 hr, 4 hr, 6 hr, 8 hr in heparinized tubes. Blood samples were centrifuged at 10,000 rpm for 5 min. at 4° C. to obtain the plasma, which were aspirated into separate labeled tubes and stored at −80° C. 400 ng/ml of standard in acetonitrile was used as the drug extraction solvent for extracting drug from plasma. Extraction solvent was added to plasma was vortexed and shaken on shaker for 10 minutes, centrifuged at 10,000 rpm for 10 minutes at 4° C. Supernatant was kept for analysis.
Acetonitrile and plasma calibration curves were generated and percentage of drug recovery from plasma determined. Quantitative analysis was done by liquid chromatography tandem mass spectrometer (API3200 LC-MS/MS). Cmax, Tmax, AUC and t1/2 were calculated using Graph Pad PRISM version 5.04 and the results were depicted in Table 3.

The next data set relates to AMP kinase. Description: cell-based fluorescent ELISA of AMP kinase phosphorylation status in cultured cells. Conditions: AMP kinase phosphorylation (pAMPK) in cultured cells. On the procedure:
The compounds of the present invention were tested for their activity on AMP kinase. The activity on AMP kinase was evaluated by quantitative fluorescent immunoenzymatic assay of AMP kinase phosphorylation status in cultured cells. The 5-AMP-activated protein kinase (AMP kinase) is a key sensor of intracellular energy balance. AMP kinase is activated in response to an increase in the AMP/ATP ratio which can be caused by a number of factors such as muscle contraction, starvation, or hypoxia. AMP kinase is a heterotrimeric protein complex comprising of (63 kDa),—(38 kDa) and—•(38 kDa) subunits. For each subunit, isoforms have been identified (1, 2, 1, 2, 1, 2, 3) which theoretically allow the formation of 12 different proteins. The -subunit contains a serine/threonine kinase domain and the regulatory subunits contain binding sites for AMP and ATP (-subunit) and for glycogen (-subunit). AMP kinase is activated by phosphorylation on Thr-172 within the catalytic domain. AMP binding results in a 2 to 5-fold increase in AMP kinase activity compared to the basal level. […]
BioAssay Systems' cell-based ELISA measure phosphorylated AMP kinase in whole cells and normalizes the signal to the total protein content. […] AMP kinase phosphorylation (pAMPK) is measured using a fluorescent ELISA followed by total protein measurement in each well.

Data set [2] concerns Electron Transport Chain Complex IV. Description: increase of the expression of Electron Transport Chain IV (ETC IV). In kind it is cell-based. The following applies: for EC50: increase of expression of ETC IV, read-out: EC50 on mitochondrial ETC complexes: Electron Transport Chain Complex IV. An excerpt: The present invention discloses a remarkable range of biological activity across the two enantiomers of epicatechin, something heretofore not described for flavonoids as a class. The enantiomer of (−)-epicatechin is (+)-epicatechin. […]

Data set [3] can be described thus: Effect on triglyceride level in animals on High Fat Diet. The format is in vivo, mice. Conditions: 15 days. As to the method:
Animals were placed on High Fat Diet (HFD) until they gain more than 20% of Body weight compared with animals on standard chow and reached glycemia levels ≥200 mg/dL (usually 4-6 weeks). Animals were randomly assigned to Control (obese group) receiving vehicle only (by gavage): n=12; (+)-Epicatechin—orally by gavage: n=10: (−)-Epicatechin—orally by gavage: n=10.
All animals were treated for 15 days and continued under HFD. The results are presented at FIG. 3.

One may read the AUC as concentration integrated over time. Regarding `CCCCCCCC(=O)Oc1cc(O)cc2c1C[C@H](O)[C@H](c1ccc(O)c(O)c1)O2` [Compound 1001, (2S,3S)-2-(3,4-dihydroxyphenyl)-3,7-dihydroxychroman-5-yl octanoate], in data set [1] (mouse, 10 mg/kg, read-out: AUC), the AUC is 2.8 µM·h. Moreover, the half-life in data set [1] (mouse, 10 mg/kg, read-out: Elimination t½ (converted)) was 4.5 h. Also, in the data set on AMP kinase, the “concentration at which AMPK activity is exhibited” value was 1 nM.
For orientation: EC50 means the midpoint of the concentration-response curve. In the case of `Oc1cc(O)c2c(c1)O[C@@H](c1ccc(O)c(O)c1)[C@@H](O)C2` [(+)-Epicatechin], in data set [1], the AUC is 0.683 µM·h and the “Elimination t½” value stood at 2.13 h. The “fold more potent than (−)-epicatechin on increase of the expression of ETC IV” value in data set [2] ((+)-epicatechin versus (−)-epicatechin) is reported as “approximately 400 fold”. Moreover, the EC50 in data set [2] came out at 0.1 µM. The “improvement over (−)-epicatechin in dose giving the same triglyceride reduction” value in data set [3] (0.003 vs 0.1 mg/Kg/day, oral) is more than 30 fold. In addition, the “reduction in triglyceride levels” value in data set [3] ((+)-epicatechin 0.003 mg/Kg/day vs (−)-epicatechin 0.1 mg/Kg/day, orally by gavage, FIG. 3 triglycerides content of livers) was “shows the same reduction in triglyceride levels as (−)-epicatechin”.
`Oc1cc(O)c2c(c1)O[C@H](c1ccc(O)c(O)c1)[C@H](O)C2` [(−)-Epicatechin, reference compound]: the EC50 in data set [2] stood at 40 µM.

(Values after patent publication US10898465B2, “Utility of (+) epicatechin and their analogs” (Epirium Bio Inc., priority 2016, dated 2021).)
